Values of other authors, collected in patent publication US20240350389A1, “METHOD FOR DYEING KERATINOUS MATERIAL, IN PARTICULAR HUMAN HAIR” (HENKEL AG & CO. KGAA, priority 2021, published 2024).

Details: 25° C.

| SMILES | water solubility | solubility in water |
| --- | --- | --- |
| CCN(Cc1cccc(S(=O)(=O)[O-])c1)c1ccc(C(=C2C=CC(=[N+](CC)Cc3cccc(S(=O)(=O)[O-])c3)C=C2)c2ccccc2S(=O)(=O)[O-])cc1.[Na+].[Na+] [Acid Blue 9] | more than 20 wt % |  |
| O=S(=O)([O-])c1ccc(N=Nc2c(O)ccc3ccccc23)cc1.[Na+] [Acid Orange 7, sodium salt of 4-[(2-hydroxy-1-naphthyl)azo]benzene sulfonate] |  | more than 7 g/L |
| Nc1cc(S(=O)(=O)[O-])cc2cc(S(=O)(=O)[O-])c(N=Nc3ccccc3)c(O)c12.[Na+].[Na+] [Acid Red 33, disodium salt of 5-amino4-hydroxy-3-(phenylazo)-naphthalene2,7-disulfonate] |  | 2500 µg/mL |
| O=[N+]([O-])c1cc([N+](=O)[O-])c2ccc(S(=O)(=O)O)cc2c1O.[Na].[Na] [Acid yellow 1, 8-hydroxy-5,7-dinitro-2-naphthalenesulfonic acid disodium] |  | at least 40 g/L |
